Source: patent US6376426B1, “Herbicidal 3-(heterocycl-1-yl)-uracils” (BASF Aktiengesellschaft, priority 1999, dated 2002)

Experiments:
Format in all cases: in vivo
Abutilon theophrasti = assay: Post-emergence herbicidal test, ABUTH; set-up: key to herbicidal effect (0-9 scale) ABUTH / herbicidal rating ABUTH: A rating 0 indicates growth as untreated control; a rating 9 indicates death; details: for herbicidal rating ABUTH: POST, 0-9 scale, 21 days after spraying
How it was run: (§1)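 Herbicidal effect is recorded on a linear 0-9 scale, where 0 means growth like untreated control and 9 means death, with one unit approximating 10% more effect.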

Echinochloa crus-galli [1] = assay: Pre-emergence herbicidal test, ECHCG; set-up: key: A rating 0 indicates growth as untreated control; a rating 9 indicates death; details: 0-9 scale, 21 days after spraying
Matricaria inodora [2] = assay: Pre-emergence herbicidal test, MATIN; set-up: key to herbicidal effect (0-9 scale) MATIN / herbicidal rating MATIN: A rating 0 indicates growth as untreated control; a rating 9 indicates death; details: for herbicidal rating MATIN: PRE, 0-9 scale, 21 days after spraying
Ipomoea hederacea = assay: Post-emergence herbicidal test, IPOHE; set-up: key to herbicidal effect (0-9 scale) IPOHE / herbicidal rating IPOHE: A rating 0 indicates growth as untreated control; a rating 9 indicates death; details: for herbicidal rating IPOHE: POST, 0-9 scale, 21 days after spraying
How it was run: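 Test compound applied post-emergence as acetone solution diluted in water, sprayed onto foliage and soil at about 1000, 800, 400, 250 or 100 g/ha; plants kept in greenhouse.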

Zea mays [3] = assay: Post-emergence herbicidal test, ZEAMX; set-up: key: A rating 0 indicates growth as untreated control; a rating 9 indicates death; details: 0-9 scale, 21 days after spraying
How it was run: as §1

Stellaria media = assay: Post-emergence herbicidal test, STEME; set-up: key to herbicidal effect (0-9 scale) STEME / herbicidal rating STEME: A rating 0 indicates growth as untreated control; a rating 9 indicates death; details: for herbicidal rating STEME: POST, 0-9 scale, 21 days after spraying
How it was run: as §1

Glycine max = assay: Post-emergence herbicidal test, GLXMA; set-up: key: A rating 0 indicates growth as untreated control; a rating 9 indicates death; details: 0-9 scale, 21 days after spraying
Experimental: (§2) To evaluate their herbicidal activity, compounds according to the invention are tested using a representative range of plants:
(§3) […] After spraying, the plants are placed on greenhouse benches and are cared for in the usual manner, commensurate with conventional greenhouse practices.
(§4) The herbicidal effects of the test compounds are assessed visually twenty-one days after spraying the foliage and the soil and are recorded on a 0-9 scale. A rating 0 indicates growth as untreated control, a rating 9 indicates death. An increase of 1 unit on the linear scale approximates to a 10% increase in the level of effect.

[4] = tested on: representative range of plants; assay: Post-emergence herbicidal test, summary over the plants tested; details: 100 g/ha
Experimental: as §2, §3, §4

Matricaria inodora [5] = assay: Post-emergence herbicidal test, MATIN; set-up: key to herbicidal effect (0-9 scale) MATIN / herbicidal rating MATIN: A rating 0 indicates growth as untreated control; a rating 9 indicates death; details: for herbicidal rating MATIN: POST, 0-9 scale, 21 days after spraying
How it was run: as §1

Galium aparine [6] = assay: Pre-emergence herbicidal test, GALAP; set-up: key to herbicidal effect (0-9 scale) GALAP / herbicidal rating GALAP: A rating 0 indicates growth as untreated control; a rating 9 indicates death; details: for herbicidal rating GALAP: PRE, 0-9 scale, 21 days after spraying
[7] = tested on: representative range of plants; assay: Herbicidal activity, pre- and post-emergence, overall; details: both in pre- and post-emergence
Experimental: as §2
The pre-emergence tests involve spraying a liquid formulation of the compound onto the soil in which the seeds of the plant species mentioned above has recently been sown.
The soil used in the tests is a prepared horticultural loam. The formulations used in the tests are prepared from solutions of the test compounds in acetone containing 0.4% by weight of an alkylphenol/ethylene oxide condensate available under the trade mark TRITON X-155. These acetone solutions are diluted with water and the resulting formulations applied at dosage levels corresponding to 1000 g and 250 g/ha of active material per hectare in a volume equivalent to 900 litres per hectare. In these tests untreated sown soil are used as controls.
These acetone solutions are diluted with water and the resulting formulations applied at dosage levels equivalent to about 1000, 800, 400, 250 or 100 g/ha per hectare of test compound per pot. After spraying, the plants are placed on greenhouse benches and are cared for in the usual manner, commensurate with conventional greenhouse practices.
as §4

Galium aparine [8] = assay: Post-emergence herbicidal test, GALAP; set-up: key to herbicidal effect (0-9 scale) GALAP / herbicidal rating GALAP: A rating 0 indicates growth as untreated control; a rating 9 indicates death; details: for herbicidal rating GALAP: POST, 0-9 scale, 21 days after spraying
How it was run: as §1

Echinochloa crus-galli [9] = assay: Post-emergence herbicidal test, ECHCG; set-up: key: A rating 0 indicates growth as untreated control; a rating 9 indicates death; details: 0-9 scale, 21 days after spraying
How it was run: as §1

Zea mays [10] = assay: Pre-emergence herbicidal test, ZEAMX; set-up: key to herbicidal effect (0-9 scale) ZEAMX / herbicidal rating ZEAMX: A rating 0 indicates growth as untreated control; a rating 9 indicates death; details: for herbicidal rating ZEAMX: PRE, 0-9 scale, 21 days after spraying
Setaria viridis [11] = assay: Post-emergence herbicidal test, SETVI; set-up: key to herbicidal effect (0-9 scale) SETVI / herbicidal rating SETVI: A rating 0 indicates growth as untreated control; a rating 9 indicates death; details: POST, 0-9 scale, 21 days after spraying
How it was run: as §1

Setaria viridis [12] = assay: Pre-emergence herbicidal test, SETVI; set-up: key to herbicidal effect (0-9 scale) SETVI / herbicidal rating SETVI: A rating 0 indicates growth as untreated control; a rating 9 indicates death; details: for herbicidal rating SETVI: PRE, 0-9 scale, 21 days after spraying

## Cn1c(C(F)(F)F)cc(=O)n(-n2ccc3c(Cl)cccc32)c1=O [Example 169, 3-(4-Chloro-indol-1-yl)-1-methyl-6-trifluoromethylpyrimidine-2,4-dione]
Abutilon theophrasti; 25 g/ha
  herbicidal rating ABUTH: 9
Abutilon theophrasti; 100 g/ha
  herbicidal rating ABUTH: 9
Abutilon theophrasti; 400 g/ha
  herbicidal rating ABUTH: 9
Abutilon theophrasti; post-emergence, 12.5 g/ha
  control of Abutilon: excellent control
Echinochloa crus-galli [1]; 12.5 g/ha
  herbicidal rating ECHCG: 4
Echinochloa crus-galli [1]; 25 g/ha
  herbicidal rating ECHCG: 7
Echinochloa crus-galli [1]; 100 g/ha
  herbicidal rating ECHCG: 9
Echinochloa crus-galli [1]; 400 g/ha
  herbicidal rating ECHCG: 9
Matricaria inodora [2]; 12.5 g/ha
  herbicidal rating MATIN: 8
Matricaria inodora [2]; 25 g/ha
  herbicidal rating MATIN: 8
Matricaria inodora [2]; 100 g/ha
  herbicidal rating MATIN: 9
Matricaria inodora [2]; 400 g/ha
  herbicidal rating MATIN: 9
Matricaria inodora [2]; pre-emergence, 25 g/ha
  control of Matricaria: good control
Ipomoea hederacea; 25 g/ha
  herbicidal rating IPOHE: 9
Ipomoea hederacea; 100 g/ha
  herbicidal rating IPOHE: 9
Ipomoea hederacea; 400 g/ha
  herbicidal rating IPOHE: 9
Ipomoea hederacea; post-emergence, 12.5 g/ha
  control of Ipomoea: excellent control
Zea mays [3]; 25 g/ha
  herbicidal rating ZEAMX: 0
Zea mays [3]; 100 g/ha
  herbicidal rating ZEAMX: 3
Zea mays [3]; 400 g/ha
  herbicidal rating ZEAMX: 5
Stellaria media; 25 g/ha
  herbicidal rating STEME: 8
Stellaria media; 100 g/ha
  herbicidal rating STEME: 9
Stellaria media; 400 g/ha
  herbicidal rating STEME: 9
Stellaria media; post-emergence, 12.5 g/ha
  control of Stellaria: excellent control
Glycine max; 25 g/ha
  herbicidal rating GLXMA: 5
Glycine max; 100 g/ha
  herbicidal rating GLXMA: 7
Glycine max; 400 g/ha
  herbicidal rating GLXMA: 9
[4]
  control of the weeds: good cross spectrum control on both broadleaf weeds and grasses
Matricaria inodora [5]; 25 g/ha
  herbicidal rating MATIN: 8
Matricaria inodora [5]; 100 g/ha
  herbicidal rating MATIN: 9
Matricaria inodora [5]; 400 g/ha
  herbicidal rating MATIN: 9
Matricaria inodora [5]; post-emergence, 12.5 g/ha
  control of Matricaria: excellent control
Galium aparine [6]; 12.5 g/ha
  herbicidal rating GALAP: 7
Galium aparine [6]; 25 g/ha
  herbicidal rating GALAP: 8
Galium aparine [6]; 100 g/ha
  herbicidal rating GALAP: 9
Galium aparine [6]; 400 g/ha
  herbicidal rating GALAP: 9
Galium aparine [6]; pre-emergence, 25 g/ha
  control of Galium: good control
[7]
  herbicidal performance: excellent performance
Galium aparine [8]; 25 g/ha
  herbicidal rating GALAP: 9
Galium aparine [8]; 100 g/ha
  herbicidal rating GALAP: 9
Galium aparine [8]; 400 g/ha
  herbicidal rating GALAP: 9
Galium aparine [8]; post-emergence, 12.5 g/ha
  control of Galium: excellent control
Echinochloa crus-galli [9]; 25 g/ha
  herbicidal rating ECHCG: 5
Echinochloa crus-galli [9]; 100 g/ha
  herbicidal rating ECHCG: 9
Echinochloa crus-galli [9]; 400 g/ha
  herbicidal rating ECHCG: 9
Zea mays [10]; 12.5 g/ha
  herbicidal rating ZEAMX: 0
Zea mays [10]; 25 g/ha
  herbicidal rating ZEAMX: 1
Zea mays [10]; 100 g/ha
  herbicidal rating ZEAMX: 3
Zea mays [10]; 400 g/ha
  herbicidal rating ZEAMX: 7
Zea mays [10]; pre-emergence, 25 g/ha
  selectivity in maize: Surprisingly good selectivity
Setaria viridis [11]; 25 g/ha
  herbicidal rating SETVI: 6
Setaria viridis [11]; 100 g/ha
  herbicidal rating SETVI: 9
Setaria viridis [11]; 400 g/ha
  herbicidal rating SETVI: 9
Setaria viridis [12]; 12.5 g/ha
  herbicidal rating SETVI: 8
Setaria viridis [12]; 25 g/ha
  herbicidal rating SETVI: 9
Setaria viridis [12]; 100 g/ha
  herbicidal rating SETVI: 9
Setaria viridis [12]; 400 g/ha
  herbicidal rating SETVI: 9
Setaria viridis [12]; pre-emergence, 25 g/ha
  control of Setaria: good control
